PubChem BioAssay (NCI)
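How tested: cells in 96-well plates exposed to compound for 48 hours at five concentrations. GI50 is the concentration that inhibits growth by half. TGI: concentration producing complete growth inhibition.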

How the values were obtained:
Assay in all cases: growth of human tumour cells (NCI), 48 h
K-562 leukemia = system: K-562 leukemia
EKVX NSCLC = system: EKVX NSCLC
SF-268 CNS = system: SF-268 CNS
PC-3 prostate = system: PC-3 prostate
NCI-H522 lung = system: NCI-H522 lung
RXF 393 renal = system: RXF 393 renal
NCI-H226 lung = system: NCI-H226 lung
T-47D breast = system: T-47D breast
DU-145 prostate = system: DU-145 prostate
MOLT-4 leukemia = system: MOLT-4 leukemia
KM12 colon = system: KM12 colon
HCT-15 colon = system: HCT-15 colon
ACHN renal = system: ACHN renal
SN12C renal = system: SN12C renal
MDA-MB-435 = system: MDA-MB-435
MALME-3M melanoma = system: MALME-3M melanoma
SK-MEL-5 melanoma = system: SK-MEL-5 melanoma
OVCAR-4 ovarian = system: OVCAR-4 ovarian
CCRF-CEM leukemia = system: CCRF-CEM leukemia
SK-MEL-2 melanoma = system: SK-MEL-2 melanoma
HS 578T breast = system: HS 578T breast
BT-549 breast = system: BT-549 breast
HL-60(TB) leukemia = system: HL-60(TB) leukemia
OVCAR-3 ovarian = system: OVCAR-3 ovarian
SNB-19 CNS = system: SNB-19 CNS
HCC-2998 colon = system: HCC-2998 colon
SF-295 CNS = system: SF-295 CNS
HOP-92 NSCLC = system: HOP-92 NSCLC
SR leukemia = system: SR leukemia
SNB-75 CNS = system: SNB-75 CNS
OVCAR-8 ovarian = system: OVCAR-8 ovarian
MCF7 breast = system: MCF7 breast
SW-620 colon = system: SW-620 colon
SF-539 CNS = system: SF-539 CNS
RPMI-8226 leukemia = system: RPMI-8226 leukemia
OVCAR-5 ovarian = system: OVCAR-5 ovarian
LOX IMVI melanoma = system: LOX IMVI melanoma
COLO 205 colon = system: COLO 205 colon
NCI-H460 lung = system: NCI-H460 lung
MDA-MB-231 breast = system: MDA-MB-231 breast
SK-MEL-28 melanoma = system: SK-MEL-28 melanoma
M14 melanoma = system: M14 melanoma
MDA-N = system: MDA-N
CAKI-1 renal = system: CAKI-1 renal
786-0 renal = system: 786-0 renal
NCI/ADR-RES ovarian = system: NCI/ADR-RES ovarian
A549 NSCLC = system: A549 NSCLC
UACC-257 melanoma = system: UACC-257 melanoma
IGROV1 ovarian = system: IGROV1 ovarian
U251 CNS = system: U251 CNS
TK-10 renal = system: TK-10 renal
A498 renal = system: A498 renal
UACC-62 melanoma = system: UACC-62 melanoma
NCI-H23 lung = system: NCI-H23 lung
HT29 colon = system: HT29 colon
HCT-116 colon = system: HCT-116 colon
UO-31 renal = system: UO-31 renal
HOP-62 NSCLC = system: HOP-62 NSCLC
SK-OV-3 ovarian = system: SK-OV-3 ovarian

Compound `CC1=C(C(=O)N[C@@H](CC(C)C)C(=O)O)N2C(=O)[C@@H](NC(=O)C(N)c3ccccc3)[C@H]2SC1` (some centres not stated) has a TGI (K-562 leukemia) greater than 100 µM, a TGI (EKVX NSCLC) greater than 100 µM and a TGI (SF-268 CNS) greater than 100 µM. It also gave a TGI (PC-3 prostate) greater than 100 µM, a TGI (NCI-H522 lung) greater than 100 µM and a TGI (RXF 393 renal) greater than 100 µM. For the same compound, the TGI (NCI-H226 lung) was greater than 100 µM, the TGI (T-47D breast) was greater than 100 µM and the TGI (DU-145 prostate) was greater than 100 µM. It also gave a TGI (MOLT-4 leukemia) greater than 100 µM, a TGI (KM12 colon) greater than 100 µM and a TGI (HCT-15 colon) greater than 100 µM. It also gave a TGI (ACHN renal) greater than 100 µM, a TGI (SN12C renal) greater than 100 µM and a TGI (MDA-MB-435) greater than 100 µM. The TGI (MALME-3M melanoma) was greater than 100 µM, the TGI (SK-MEL-5 melanoma) was greater than 100 µM and the TGI (OVCAR-4 ovarian) was greater than 100 µM. It also gave a TGI (CCRF-CEM leukemia) greater than 100 µM, a TGI (SK-MEL-2 melanoma) greater than 100 µM and a TGI (HS 578T breast) greater than 100 µM. It also gave a TGI (BT-549 breast) greater than 100 µM, a TGI (HL-60(TB) leukemia) greater than 100 µM and a TGI (OVCAR-3 ovarian) greater than 100 µM. For the same compound, the TGI (SNB-19 CNS) was greater than 100 µM, the TGI (HCC-2998 colon) was greater than 100 µM and the TGI (SF-295 CNS) was greater than 100 µM. It also gave a TGI (HOP-92 NSCLC) greater than 100 µM, a TGI (SR leukemia) greater than 100 µM and a TGI (SNB-75 CNS) greater than 100 µM. For the same compound, the TGI (OVCAR-8 ovarian) was greater than 100 µM, the TGI (MCF7 breast) was greater than 100 µM and the TGI (SW-620 colon) was greater than 100 µM. It also gave a TGI (SF-539 CNS) greater than 100 µM, a TGI (RPMI-8226 leukemia) greater than 100 µM and a TGI (OVCAR-5 ovarian) greater than 100 µM. It also gave a TGI (LOX IMVI melanoma) greater than 100 µM, a TGI (COLO 205 colon) greater than 100 µM and a TGI (NCI-H460 lung) greater than 100 µM. It also gave a TGI (MDA-MB-231 breast) greater than 100 µM, a TGI (SK-MEL-28 melanoma) greater than 100 µM and a TGI (M14 melanoma) greater than 100 µM. For the same compound, the TGI (MDA-N) was greater than 100 µM, the TGI (CAKI-1 renal) was greater than 100 µM and the TGI (786-0 renal) was greater than 100 µM. The TGI (NCI/ADR-RES ovarian) was greater than 100 µM, the TGI (A549 NSCLC) was greater than 100 µM and the TGI (UACC-257 melanoma) was greater than 100 µM. For the same compound, the TGI (IGROV1 ovarian) was greater than 100 µM, the TGI (U251 CNS) was greater than 100 µM and the TGI (TK-10 renal) was greater than 100 µM. It also gave a TGI (A498 renal) greater than 100 µM and a TGI (UACC-62 melanoma) greater than 100 µM.

`NCCN.O=C([O-])CN1CCOCC1.[OH-].[Pt+4]` showed a GI50 (EKVX NSCLC) greater than 100 µM, a TGI (EKVX NSCLC) greater than 100 µM and a GI50 (SF-268 CNS) greater than 100 µM. It also gave a TGI (SF-268 CNS) greater than 100 µM, a GI50 (PC-3 prostate) greater than 100 µM and a TGI (PC-3 prostate) greater than 100 µM. For the same compound, the GI50 (NCI-H522 lung) was greater than 100 µM, the TGI (NCI-H522 lung) was greater than 100 µM and the GI50 (RXF 393 renal) was greater than 100 µM. The TGI (RXF 393 renal) was greater than 100 µM, the GI50 (NCI-H226 lung) was greater than 100 µM and the TGI (NCI-H226 lung) was greater than 100 µM. It also gave a GI50 (T-47D breast) greater than 100 µM, a TGI (T-47D breast) greater than 100 µM and a GI50 (DU-145 prostate) greater than 100 µM. The TGI (DU-145 prostate) was greater than 100 µM, the GI50 (MOLT-4 leukemia) was greater than 100 µM and the TGI (MOLT-4 leukemia) was greater than 100 µM. It also gave a GI50 (KM12 colon) greater than 100 µM, a TGI (KM12 colon) greater than 100 µM and a GI50 (NCI-H23 lung) of 60.9 µM. The TGI (NCI-H23 lung) was greater than 100 µM, the GI50 (HCT-15 colon) was greater than 100 µM and the TGI (HCT-15 colon) was greater than 100 µM. The GI50 (ACHN renal) was greater than 100 µM, the TGI (ACHN renal) was greater than 100 µM and the GI50 (SN12C renal) was greater than 100 µM. For the same compound, the TGI (SN12C renal) was greater than 100 µM, the GI50 (MDA-MB-435) was greater than 100 µM and the TGI (MDA-MB-435) was greater than 100 µM. For the same compound, the GI50 (MALME-3M melanoma) was greater than 100 µM, the TGI (MALME-3M melanoma) was greater than 100 µM and the GI50 (SK-MEL-5 melanoma) was greater than 100 µM. For the same compound, the TGI (SK-MEL-5 melanoma) was greater than 100 µM, the GI50 (OVCAR-4 ovarian) was greater than 100 µM and the TGI (OVCAR-4 ovarian) was greater than 100 µM. It also gave a GI50 (CCRF-CEM leukemia) greater than 100 µM, a TGI (CCRF-CEM leukemia) greater than 100 µM and a GI50 (SK-MEL-2 melanoma) greater than 100 µM. The TGI (SK-MEL-2 melanoma) was greater than 100 µM, the GI50 (HT29 colon) was greater than 100 µM and the TGI (HT29 colon) was greater than 100 µM. It also gave a GI50 (HS 578T breast) greater than 100 µM, a TGI (HS 578T breast) greater than 100 µM and a GI50 (BT-549 breast) greater than 100 µM. For the same compound, the TGI (BT-549 breast) was greater than 100 µM, the GI50 (HL-60(TB) leukemia) was 15.8 µM and the TGI (HL-60(TB) leukemia) was greater than 100 µM. The GI50 (OVCAR-3 ovarian) was greater than 100 µM, the TGI (OVCAR-3 ovarian) was greater than 100 µM and the GI50 (SNB-19 CNS) was greater than 100 µM. For the same compound, the TGI (SNB-19 CNS) was greater than 100 µM, the GI50 (HCT-116 colon) was greater than 100 µM and the TGI (HCT-116 colon) was greater than 100 µM. The GI50 (HCC-2998 colon) was greater than 100 µM, the TGI (HCC-2998 colon) was greater than 100 µM and the GI50 (SF-295 CNS) was greater than 100 µM. The TGI (SF-295 CNS) was greater than 100 µM, the GI50 (HOP-92 NSCLC) was greater than 100 µM and the TGI (HOP-92 NSCLC) was greater than 100 µM. The GI50 (SR leukemia) was greater than 100 µM, the TGI (SR leukemia) was greater than 100 µM and the GI50 (UO-31 renal) was greater than 100 µM. For the same compound, the TGI (UO-31 renal) was greater than 100 µM, the GI50 (SNB-75 CNS) was greater than 100 µM and the TGI (SNB-75 CNS) was greater than 100 µM. For the same compound, the GI50 (OVCAR-8 ovarian) was greater than 100 µM, the TGI (OVCAR-8 ovarian) was greater than 100 µM and the GI50 (MCF7 breast) was greater than 100 µM. For the same compound, the TGI (MCF7 breast) was greater than 100 µM, the GI50 (SW-620 colon) was greater than 100 µM and the TGI (SW-620 colon) was greater than 100 µM. The GI50 (SF-539 CNS) was greater than 100 µM, the TGI (SF-539 CNS) was greater than 100 µM and the GI50 (HOP-62 NSCLC) was greater than 100 µM. The TGI (HOP-62 NSCLC) was greater than 100 µM, the GI50 (OVCAR-5 ovarian) was greater than 100 µM and the TGI (OVCAR-5 ovarian) was greater than 100 µM. For the same compound, the GI50 (LOX IMVI melanoma) was greater than 100 µM, the TGI (LOX IMVI melanoma) was greater than 100 µM and the GI50 (COLO 205 colon) was greater than 100 µM. It also gave a TGI (COLO 205 colon) greater than 100 µM, a GI50 (NCI-H460 lung) of 37.5 µM and a TGI (NCI-H460 lung) greater than 100 µM. For the same compound, the GI50 (MDA-MB-231 breast) was greater than 100 µM, the TGI (MDA-MB-231 breast) was greater than 100 µM and the GI50 (SK-MEL-28 melanoma) was greater than 100 µM. The TGI (SK-MEL-28 melanoma) was greater than 100 µM, the GI50 (M14 melanoma) was greater than 100 µM and the TGI (M14 melanoma) was greater than 100 µM. The GI50 (MDA-N) was greater than 100 µM, the TGI (MDA-N) was greater than 100 µM and the GI50 (CAKI-1 renal) was greater than 100 µM. It also gave a TGI (CAKI-1 renal) greater than 100 µM, a GI50 (786-0 renal) greater than 100 µM and a TGI (786-0 renal) greater than 100 µM. For the same compound, the GI50 (NCI/ADR-RES ovarian) was greater than 100 µM, the TGI (NCI/ADR-RES ovarian) was greater than 100 µM and the GI50 (A549 NSCLC) was greater than 100 µM. The TGI (A549 NSCLC) was greater than 100 µM, the GI50 (UACC-257 melanoma) was greater than 100 µM and the TGI (UACC-257 melanoma) was greater than 100 µM. For the same compound, the GI50 (IGROV1 ovarian) was greater than 100 µM, the TGI (IGROV1 ovarian) was greater than 100 µM and the GI50 (U251 CNS) was greater than 100 µM. The TGI (U251 CNS) was greater than 100 µM, the GI50 (TK-10 renal) was greater than 100 µM and the TGI (TK-10 renal) was greater than 100 µM. For the same compound, the GI50 (SK-OV-3 ovarian) was greater than 100 µM, the TGI (SK-OV-3 ovarian) was greater than 100 µM and the GI50 (A498 renal) was greater than 100 µM. The TGI (A498 renal) was greater than 100 µM, the GI50 (UACC-62 melanoma) was greater than 100 µM and the TGI (UACC-62 melanoma) was greater than 100 µM.
